Results reported in patent US7989433B2, “Substituted thieno[3,2-D]pyrimidines as melanin concentrating hormone receptor-1 antagonists” (Bristol-Myers Squibb Company, priority 2008, dated 2011).

Key:
hepatocytes [1] = test: Hepatocyte clearance, human; format: in vitro ADME
From the text: As a consequence the projected human half-life for these two compounds was predicted to be 20 to 40 hr.

[2] = target: T1, mutated (E4Q, A5T) hMCHR1 receptor (Homo sapiens, UniProt Q99705, A5T/E4Q); test: Radioligand binding assay for assessment of MCHR1 activity; conditions: competition vs [Phe13,[125I]Tyr19]-MCH, HEK-293 membranes
T1 construct: expressed in transfected cells; host or cells: HEK-293 (stably transfected), membrane preparation
From the text: Compounds of the present invention, namely Compounds IA and IB of the invention, and Compounds a to f (prepared as described in U.S. Patent Publication No. 2007/0093509 A1 published Apr. 26, 2007), were initially characterized in an in vitro binding assay to determine their Ki or ability to antagonize binding of a peptide agonist to the human melanin concentrating hormone receptor (MCHR1).
Radioligand Binding Assay for Assessment of MCHR1 Activity
Membranes from stably transfected HEK-293 cells expressing a mutated (E4Q, A5T) hMCHR1 receptor were prepared by dounce homogenization and differential centrifugation. Binding experiments were carried out with 0.5-1.0 ug of membrane protein incubated in a total of 0.2 ml in 25 mM HEPES (pH 7.4) with 10 mM MgCl2, 2 mM EGTA, and 0.1% BSA (Binding Buffer) for 90 min. For competition binding assays, reactions were carried out in the presence of with 0.06-0.1 nM [Phe^13, [^125I]Tyr^19]-MCH and increasing concentrations of unlabeled test molecules. Reactions were terminated by rapid vacuum filtration over 96 well-GFC Unifilter plates pre-coated with 0.075 ml binding buffer containing 1% BSA, and washed 3 times with 0.4 ml of Phospho-buffered Saline (pH 7.4) containing 0.01% TX-100, Filters were dried, 0.05 ml MicroScint 20 was added to each well and radioactivity was subsequently quantified by scintillation counting on a TOPCOUNT® microplate scintillation counter (Packard). Inhibitory constants were determined by nonlinear least squares analysis using a four parameter logistic equation.

MCHR [3] = target: T2, MCHR (Rattus norvegicus, UniProt P97639); test: Assessment of in vivo MCHR activity in young growing rats (four day efficacy model); conditions: for Efficacy at 30 mg/kg (weight loss in young growing rats): 30 mg/kg daily p.o. of ester prodrug, four day model; for Weight Reduction versus Vehicle: young growing rats
T2 construct: from tissue; host or cells: whole animal: male Sprague Dawley / Charles River rats
Experimental: Male SPRAGUE DAWLEY® (CD, Charles River Breeding Laboratory) rats weighing approximately 240 grams were place in individual plastic cages with ALPHADRI® bedding. The room was maintained at 72° F. and 50% humidity, and a 12/12 light dark cycle with lights out at 1600 hours. The rats were conditioned for 5 days prior to the start of the study to having a choice of foods. A normal chow (HARLAN TEKLAD®, 2018) that contains 18% protein, 5% fat and 73% carbohydrate and a high fat high sugar diet (Research Diets (D2327)) that contains 20% protein, 40% fat and 40% carbohydrate where the carbohydrate is entirely sucrose and the fat is soybean and coconut oil. […] Body weight and consumption of both kinds of food as well as water intake were measured daily. Water was available ad lib throughout the study. Food consumption is presented as daily caloric consumption which is the sum of grams of chow multiplied by the Kcal per gram (3.5) plus grams of high fat high sugar multiplied by Kcal per gram (4.59).
Baseline body weight was measured prior to drug treatment on day 0 of the study. Baseline food consumption was the average of the 3 days prior to the first drug treatment. […] All data were evaluated using ANOVA and Fishers PLSD statistics.

[4] = system: cytochrome P450 enzymes (rat microsomal); test: Metabolic stability versus rat microsomal oxidative degradation; conditions: rat microsomal oxidative degradation mediated by cytochrome P450
MCHR [5] = target: T2, MCHR; test: Assessment of MCHR in vivo activity in mature obese rats; conditions: dosed as prodrug
Experimental: Male rats, obtained from Charles River Laboratories weighing 250-300 g, were singly housed in plastic cages on a 12 hour light, 12 hour dark cycle with lights out at 1 pm. The animal room was maintained at 72 degrees F. and 50% humidity. The rats were made obese by giving them simultaneous access to two different diets, HARLAN TEKLAD® rat chow (standard chow) and Research Diets D12327 (a high fat, high carbohydrate, highly palatable diet). The Research Diets chow is comprised of 40% vegetable fat, 40% carbohydrate (sucrose) and 20% protein. The Harlan diet is comprised of 5% fat (soybean oil), 67% carbohydrate (starch) and 22% protein. The normal Harlan rat diet used contains 3.4 kcal/gram of diet, and Research Diet #12327 contains 4.59 kcal/gram. The rats were on the choice diet regime for 10 weeks in order to induce obesity. Once started on the choice diet regime the rats are maintained on it for the duration of the study. Baseline feeding and body weight were collected and used to sort animals into treatment groups. Mean rat weight at the start of the choice diet was 250 grams. The mean weight of the rats at the start of chronic dosing was 661.7±6.3 (mean±sem) grams.
Rats were dosed orally one hour before the start of the dark cycle. Body weight and food consumption were measured daily at the time of dosing. Food consumption was converted to Kcal consumed. Total Kcal consumed was determined by adding the Kcal consumed for each diet and this was determined by multiplying grams of each diet consumed times the Kcal/gram. […]

[6] = Rat PK model / eight hour PK study after oral prodrug ester; format: in vivo; conditions: Sprague-Dawley; for AUC: blood, 10 mg/kg oral prodrug ester, 8 hr AUC of bio-active substance, no unit in table (b280 micromole*hr); for Kp: brain and plasma, 10 mg/kg oral dose of amino acid ester prodrug (valine or glycine), bio-active substance
Experimental: The relative ability of the prodrug to enhance exposure (bioavailability) was assessed in an eight hour PK study using cannulated SPRAGUE DAWLEY® (CD, Charles River Breeding Laboratory) rats. The compounds (parent and pro-drug esters) were administered p.o. at 2.0 ml/kg as a suspension in 0.5% methyl cellulose, 0.1% Tween 80 in water at 10 mg/kg p.o. Blood samples were taken at 1, 2, 4 and 8 hr. After determination of parent concentration, an AUC was calculated for the eight hour study.

[7] = One month rat study, formation of biliary lesions; format: in vivo; conditions: for biliary lesion formation in rats: doses up to 300 mg/kg for a month; for Formation of Biliary Lesions: rats
From the text: Further investigation established that the toxic agent was a metabolite arising from in vivo oxidative hydroxylation of the alkyl chain containing the tertiary carbinol moiety of compound f.

[8] = Full PK study in dog (half-life); conditions: in vivo
hepatocytes [9] = test: Hepatocyte clearance, dog; format: in vitro ADME
[10] = 3 mg/kg p.o. daily day 0-4, dosed as prodrug
[11] = 10 mg/kg p.o. daily day 0-4, dosed as prodrug
[12] = 30 mg/kg p.o. daily day 0-4, dosed as prodrug

T2 sequence (P97639 whole entry): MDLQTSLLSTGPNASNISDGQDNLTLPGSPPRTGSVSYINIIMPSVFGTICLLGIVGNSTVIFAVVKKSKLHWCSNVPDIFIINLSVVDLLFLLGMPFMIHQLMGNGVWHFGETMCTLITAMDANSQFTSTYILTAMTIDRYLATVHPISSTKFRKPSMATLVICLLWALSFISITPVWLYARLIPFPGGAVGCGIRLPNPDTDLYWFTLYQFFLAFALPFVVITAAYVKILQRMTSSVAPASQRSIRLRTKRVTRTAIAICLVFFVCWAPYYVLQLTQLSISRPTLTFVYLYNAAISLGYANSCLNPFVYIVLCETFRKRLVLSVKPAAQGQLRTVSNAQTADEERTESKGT
T1 sequence (Q99705 whole entry E4Q/A5T): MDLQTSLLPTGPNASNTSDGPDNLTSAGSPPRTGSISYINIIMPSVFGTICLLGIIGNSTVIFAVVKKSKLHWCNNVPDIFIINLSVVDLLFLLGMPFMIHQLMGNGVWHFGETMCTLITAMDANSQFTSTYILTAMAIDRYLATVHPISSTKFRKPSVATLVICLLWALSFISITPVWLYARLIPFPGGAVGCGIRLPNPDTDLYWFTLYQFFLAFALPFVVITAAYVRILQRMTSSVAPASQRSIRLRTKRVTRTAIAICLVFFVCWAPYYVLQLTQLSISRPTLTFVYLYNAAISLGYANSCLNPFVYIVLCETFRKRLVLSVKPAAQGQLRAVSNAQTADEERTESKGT

| Compound | Ki [2] | Efficacy at 30 mg/kg (weight loss in young growing rats) (MCHR [3]) | Rat Microsomal Stability [4] | AUC [6] | Kp [6] | Formation of Biliary Lesions [7] | hepatocyte clearance (hepatocytes [1]) | half-life ([8]; Dog Half-life (hr)) | further results |
| --- | --- | --- | --- | --- | --- | --- | --- | --- | --- |
| COc1cc(-n2cnc3cc(-c4ccc(Cl)cc4)sc3c2=O)ccc1OC[C@H](OC(=O)CN)C1CC1.Cl [Example 5, (R)-2-(4-(6-(4-Chlorophenyl)-4-oxothieno[3,2-d]pyrimidin-3(4H)-yl)-2-methoxy-phenoxy)-1-cyclopropylethyl 2-aminoacetate, hydrochloride salt] | – | – | – | – | – | – | – | – | melting point: 218 to 220 °C |
| COc1cc(-n2cnc3cc(-c4ccc(Cl)cc4)sc3c2=O)ccc1OCC1(O)CC(F)(F)C1 [IB, 6-(4-Chlorophenyl)-3-(4-((3,3-difluoro-1-hydroxycyclobutyl)methoxy)-3-methoxyphenyl)thieno[3,2-d]pyrimidin-4(3H)-one] | 18 nM | 7.9% | 95% | 38 µM·h | 2.5 | No | approximated that of dog | < 1200 min | Weight Reduction versus Vehicle (MCHR [3]; 1 mg/kg p.o. daily day 0-4, dosed as prodrug): 2.9%; Weight Reduction versus Vehicle (MCHR [3]; [10]): 4.5%; Weight Reduction versus Vehicle (MCHR [3]; [11]): 6.4%; Weight Reduction versus Vehicle (MCHR [3]; [12]): 7.9%; Weight Reduction versus Vehicle (MCHR [5]; 0.03 mg/kg oral chronic dosing): 1.7%; Weight Reduction versus Vehicle (MCHR [5]; 0.1 mg/kg oral chronic dosing): 3.2%; Weight Reduction versus Vehicle (MCHR [5]; 0.3 mg/kg oral chronic dosing): 5.0%; Weight Reduction versus Vehicle (MCHR [5]; 1 mg/kg oral chronic dosing): 6.6%; Weight Reduction versus Vehicle (MCHR [5]; 3 mg/kg oral chronic dosing): 7.8%; biliary lesion formation in rats [7]: neither compound IA nor compound IB induced biliary lesion formation; half-life [8]: 960 min |
| COc1cc(-n2cnc3cc(-c4ccc(Cl)cc4)sc3c2=O)ccc1OCC1(O)CCC1 [a] | – | – | 20% | – | – | – | – | – | – |
| COc1cc(-n2cnc3cc(-c4ccc(Cl)cc4)sc3c2=O)ccc1OCC(O)CC(F)(F)F (stereo not drawn) [d] | 11 nM | 3.2% | 100% | 20 µM·h | 1.1 | No | – | – | – |
| COc1cc(-n2cnc3cc(-c4ccc(Cl)cc4)sc3c2=O)ccc1OCC(C)(C)O [f] | 12 nM | 8.2% | 98% | 45 µM·h | 2 | Yes | very slow | > 12000 min | hepatocyte clearance (hepatocytes [9]): very slow; biliary lesions in rats ([7]; 30 mg/kg for a month): developed obstructive hepatic biliary lesions |
| (R)-6-(4-Chlorophenyl)-3-(4-(2-cyclopropyl -2-hydroxyethoxy)-3-methoxyphenyl)-thieno[3,2-d]pyrimidin-4(3H)-one [IA] | – | – | – | – | – | – | – | – | Weight Reduction versus Vehicle (MCHR [3]; [10]): 2.6%; Weight Reduction versus Vehicle (MCHR [3]; [11]): 3.5%; Weight Reduction versus Vehicle (MCHR [3]; [12]): 6.4%; Weight Reduction versus Vehicle (MCHR [5]; 0.3 mg/kg oral chronic dosing): 2.09%; Weight Reduction versus Vehicle (MCHR [5]; 1 mg/kg oral chronic dosing): 3.90%; Weight Reduction versus Vehicle (MCHR [5]; 3 mg/kg oral chronic dosing): 3.57%; Weight Reduction versus Vehicle (MCHR [5]; 10 mg/kg oral chronic dosing): 8.42%; Weight Reduction versus Vehicle (MCHR [5]; 30 mg/kg oral chronic dosing): 10.16% |
| CCC(O)COc1ccc(-n2cnc3cc(-c4ccc(Cl)cc4)sc3c2=O)cc1OC (stereo not drawn) [c] | 12 nM | 4.1% | 60% | 14.5 µM·h | 3.2 | No | – | – | – |

Second part, led by results:

| Ki [2] | Efficacy at 30 mg/kg (weight loss in young growing rats) (MCHR [3]) | Rat Microsomal Stability [4] | AUC [6] | Kp [6] | Formation of Biliary Lesions [7] | Compound | hepatocyte clearance (hepatocytes [1]) | half-life ([8]; Dog Half-life (hr)) | further results |
| --- | --- | --- | --- | --- | --- | --- | --- | --- | --- |
| 8 nM | 4.5% | 100% | 46 µM·h | 0.09 | No | CCS(=O)(=O)CC(O)COc1ccc(-n2cnc3cc(-c4ccc(Cl)cc4)sc3c2=O)cc1OC (stereo not drawn) [e] | – | – | – |
| 10 nM | 6.4% | 92% | 24.5 µM·h | 0.9 | No | COc1cc(-n2cnc3cc(-c4ccc(Cl)cc4)sc3c2=O)ccc1OC[C@H](O)C1CC1 [IA, (R)-6-(4-Chlorophenyl)-3-(4-(2-cyclopropyl-2-hydroxyethoxy)-3-methoxyphenyl)-thieno[3,2-d]pyrimidin-4(3H)-one] | approximated that of dog | < 1200 min | biliary lesion formation in rats [7]: neither compound IA nor compound IB induced biliary lesion formation |
| – | 0% | 40% | – | – | Yes | COc1cc(-n2cnc3cc(-c4ccc(Cl)cc4)sc3c2=O)ccc1OCC1(O)COC1 [b] | – | – | – |
